Assay results taken from ChEMBL document CHEMBL5344402, “A multi-target directed ligands strategy for the treatment of Alzheimer's disease: Dimethyl fumarate plus Tranilast modified Dithiocarbate as AChE inhibitor and Nrf2 activator” (Eur J Med Chem, 2022).
The source made the active and inactive calls. The rule behind the calls is not given here.

What was measured:
Acetylcholinesterase [1] = molecular target: Acetylcholinesterase (Electrophorus electricus, UniProt O42275); assay: Inhibition of electric eel AChE using acetylthiocholine iodide as substrate preincubated for 5 mins followed by substrate addition by DTNB reagent based Ellman's method
Sequence of Acetylcholinesterase (Electrophorus electricus, UniProt O42275) (O42275 whole entry): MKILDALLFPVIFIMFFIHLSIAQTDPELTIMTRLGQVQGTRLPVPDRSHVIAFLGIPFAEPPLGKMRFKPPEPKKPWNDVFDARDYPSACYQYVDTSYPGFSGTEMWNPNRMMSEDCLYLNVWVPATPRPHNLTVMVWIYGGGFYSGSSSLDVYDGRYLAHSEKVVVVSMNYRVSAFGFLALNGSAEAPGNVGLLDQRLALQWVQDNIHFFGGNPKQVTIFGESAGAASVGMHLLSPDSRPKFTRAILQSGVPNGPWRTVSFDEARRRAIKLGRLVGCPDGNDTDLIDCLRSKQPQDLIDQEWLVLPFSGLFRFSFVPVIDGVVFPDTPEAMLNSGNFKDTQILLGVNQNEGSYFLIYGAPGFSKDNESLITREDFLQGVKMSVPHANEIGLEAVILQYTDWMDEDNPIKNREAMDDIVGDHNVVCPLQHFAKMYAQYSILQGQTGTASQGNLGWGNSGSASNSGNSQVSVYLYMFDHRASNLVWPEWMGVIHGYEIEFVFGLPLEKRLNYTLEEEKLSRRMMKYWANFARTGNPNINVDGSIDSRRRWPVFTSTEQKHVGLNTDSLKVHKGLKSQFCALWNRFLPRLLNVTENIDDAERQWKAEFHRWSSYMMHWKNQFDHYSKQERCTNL

[2] = molecular target: Cholinesterase (Equus caballus) (UniProt P81908); assay: Inhibition of equine serum BuChE using butyrylthiocholine iodide as substrate at 10 uM preincubated for 5 mins followed by substrate addition by DTNB reagent based Ellman's method relative to control; type: cell-free
Sequence of Cholinesterase (Equus caballus) (P81908 whole entry): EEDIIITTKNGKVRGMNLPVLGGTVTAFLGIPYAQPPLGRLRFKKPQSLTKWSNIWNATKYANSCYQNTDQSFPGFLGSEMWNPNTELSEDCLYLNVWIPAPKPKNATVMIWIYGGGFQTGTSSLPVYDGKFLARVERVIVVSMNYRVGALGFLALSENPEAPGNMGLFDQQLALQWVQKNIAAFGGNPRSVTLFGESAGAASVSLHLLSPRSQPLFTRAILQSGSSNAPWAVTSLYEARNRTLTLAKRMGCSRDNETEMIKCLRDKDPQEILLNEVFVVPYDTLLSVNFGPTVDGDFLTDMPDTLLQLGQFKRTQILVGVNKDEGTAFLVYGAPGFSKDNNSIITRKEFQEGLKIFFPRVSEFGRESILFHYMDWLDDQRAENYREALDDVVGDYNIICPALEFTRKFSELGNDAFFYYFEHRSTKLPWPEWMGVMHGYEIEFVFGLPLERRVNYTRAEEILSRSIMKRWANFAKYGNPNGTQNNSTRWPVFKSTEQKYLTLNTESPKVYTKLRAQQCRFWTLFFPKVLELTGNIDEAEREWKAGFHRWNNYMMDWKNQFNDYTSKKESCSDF

Acetylcholinesterase [3] = molecular target: Acetylcholinesterase (Homo sapiens, UniProt P22303); assay: Inhibition of human AChE using acetylthiocholine iodide as substrate preincubated for 5 mins followed by substrate addition by DTNB reagent based Ellman's method
Sequence of Acetylcholinesterase (Homo sapiens, UniProt P22303) (P22303 whole entry): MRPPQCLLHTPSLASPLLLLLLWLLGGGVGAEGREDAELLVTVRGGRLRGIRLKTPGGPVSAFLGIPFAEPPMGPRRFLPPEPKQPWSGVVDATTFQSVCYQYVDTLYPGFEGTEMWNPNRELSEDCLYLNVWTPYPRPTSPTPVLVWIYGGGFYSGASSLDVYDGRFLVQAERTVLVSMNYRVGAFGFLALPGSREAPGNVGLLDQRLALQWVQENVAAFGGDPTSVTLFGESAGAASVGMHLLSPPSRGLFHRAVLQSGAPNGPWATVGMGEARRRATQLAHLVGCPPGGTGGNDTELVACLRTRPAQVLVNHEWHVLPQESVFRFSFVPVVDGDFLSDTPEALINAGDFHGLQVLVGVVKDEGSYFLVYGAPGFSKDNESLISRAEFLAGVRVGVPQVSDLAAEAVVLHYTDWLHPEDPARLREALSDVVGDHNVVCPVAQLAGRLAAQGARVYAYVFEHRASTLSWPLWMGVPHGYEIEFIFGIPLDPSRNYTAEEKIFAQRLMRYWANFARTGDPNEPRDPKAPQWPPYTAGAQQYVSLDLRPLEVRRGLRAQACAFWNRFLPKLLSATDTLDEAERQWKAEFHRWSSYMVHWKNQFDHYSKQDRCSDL

[4] = molecular target: Cholinesterase (Homo sapiens) (UniProt P06276); assay: Inhibition of human BuChE using butyrylthiocholine iodide as substrate at 10 uM preincubated for 5 mins followed by substrate addition by DTNB reagent based Ellman's method relative to control
Sequence of Cholinesterase (Homo sapiens) (P06276 whole entry): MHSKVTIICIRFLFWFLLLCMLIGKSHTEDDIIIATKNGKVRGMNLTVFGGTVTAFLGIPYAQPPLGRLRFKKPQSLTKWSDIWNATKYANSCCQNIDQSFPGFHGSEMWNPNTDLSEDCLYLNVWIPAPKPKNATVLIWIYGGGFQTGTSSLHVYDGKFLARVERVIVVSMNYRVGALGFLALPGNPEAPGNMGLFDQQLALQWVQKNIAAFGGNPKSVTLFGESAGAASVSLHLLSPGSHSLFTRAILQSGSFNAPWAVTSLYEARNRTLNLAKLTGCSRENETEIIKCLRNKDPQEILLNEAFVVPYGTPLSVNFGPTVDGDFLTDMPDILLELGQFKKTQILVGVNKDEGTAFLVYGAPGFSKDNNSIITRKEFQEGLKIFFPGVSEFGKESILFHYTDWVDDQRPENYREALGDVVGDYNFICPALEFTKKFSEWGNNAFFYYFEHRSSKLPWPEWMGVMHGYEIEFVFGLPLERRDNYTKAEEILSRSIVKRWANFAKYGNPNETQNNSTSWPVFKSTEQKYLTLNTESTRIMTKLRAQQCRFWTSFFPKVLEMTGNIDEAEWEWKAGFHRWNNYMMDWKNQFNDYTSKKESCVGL

in vitro = conditions: PAMPA
BV-2 [5] = assay: Cytotoxicity against mouse BV-2 cells upto 10 uM incubated for 24 hrs by CCK-8 assay; type: toxicity, cell-based; conditions: bv-2, 24 h
BV-2 [6] = assay: Activation of NRF2/ARE in mouse BV-2 cells assessed as upregulation of NRF2 expression at 7 uM by Western blotting analysis; type: cell-based; conditions: filed as activator, TDE = time-dependent effect
BV-2 [7] = assay: Activation of NRF2/ARE in mouse BV-2 cells assessed as upregulation of nuclear NRF2 expression at 7 uM incubated for 4 hrs by Western blotting analysis; type: cell-based; conditions: filed as activator
BV-2 [8] = assay: Activation of NRF2/ARE in mouse BV-2 cells assessed as upregulation of cytosolic NRF2 expression at 7 uM incubated for 10 hrs by Western blotting analysis; type: cell-based
BV-2 [9] = assay: Activation of NRF2/ARE in mouse BV-2 cells assessed as upregulation of NRF2 expression incubated for 8 hrs by Western blotting analysis; type: cell-based; conditions: filed as activator
[10] = molecular target: T1, Nuclear factor erythroid 2-related factor 2 (Mus musculus) (UniProt Q60795); assay: Activation of NRF2 in mouse BV-2 cells assessed as increase in HO-1 protein expression incubated for 8 hrs by Western blotting analysis; type: cell-based; conditions: filed as activator
T1 sequence (whole entry): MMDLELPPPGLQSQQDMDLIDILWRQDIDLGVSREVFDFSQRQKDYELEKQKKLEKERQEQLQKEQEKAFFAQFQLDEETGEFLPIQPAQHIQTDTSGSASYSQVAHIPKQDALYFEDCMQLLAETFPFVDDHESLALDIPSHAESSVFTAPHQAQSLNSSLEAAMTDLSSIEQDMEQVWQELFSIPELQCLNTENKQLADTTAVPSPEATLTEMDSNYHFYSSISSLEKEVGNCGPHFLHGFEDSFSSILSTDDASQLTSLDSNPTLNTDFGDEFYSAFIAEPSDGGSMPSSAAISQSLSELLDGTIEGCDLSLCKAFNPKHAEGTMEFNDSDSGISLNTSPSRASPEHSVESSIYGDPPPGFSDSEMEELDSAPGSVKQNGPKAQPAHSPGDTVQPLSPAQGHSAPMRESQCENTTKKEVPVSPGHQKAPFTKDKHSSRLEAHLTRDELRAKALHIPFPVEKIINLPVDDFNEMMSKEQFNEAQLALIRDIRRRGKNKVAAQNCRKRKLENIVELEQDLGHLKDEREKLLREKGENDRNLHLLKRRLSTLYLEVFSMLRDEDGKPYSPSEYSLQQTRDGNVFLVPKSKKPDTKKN

[11] = molecular target: T1, Nuclear factor erythroid 2-related factor 2 (Mus musculus); assay: Activation of NRF2 in mouse BV-2 cells assessed as increase in NQO1 protein expression incubated for 8 hrs by Western blotting analysis; type: cell-based; conditions: filed as activator
[12] = molecular target: T1, Nuclear factor erythroid 2-related factor 2 (Mus musculus); assay: Activation of NRF2 in mouse BV-2 cells assessed as increase in GPX4 protein expression incubated for 8 hrs by Western blotting analysis; type: cell-based; conditions: filed as activator
[13] = molecular target: T1, Nuclear factor erythroid 2-related factor 2 (Mus musculus); assay: Activation of NRF2 in mouse BV-2 cells assessed as increase in HO-1 protein expression at 7 uM by Western blotting analysis; type: cell-based; conditions: filed as activator, TDE = time-dependent effect
[14] = molecular target: T1, Nuclear factor erythroid 2-related factor 2 (Mus musculus); assay: Activation of NRF2 in mouse BV-2 cells assessed as increase in NQO1 protein expression at 7 uM by Western blotting analysis; type: cell-based; conditions: filed as activator, TDE = time-dependent effect
[15] = molecular target: T1, Nuclear factor erythroid 2-related factor 2 (Mus musculus); assay: Activation of NRF2 in mouse BV-2 cells assessed as increase in GPX4 protein expression at 7 uM by Western blotting analysis; type: cell-based; conditions: filed as activator, TDE = time-dependent effect
[16] = molecular target: T1, Nuclear factor erythroid 2-related factor 2 (Mus musculus); assay: Activation of NRF2 in mouse BV-2 cells assessed as increase in HO-1 protein expression at 7 uM incubated for 3 to 9 hrs by Western blotting analysis; type: cell-based; conditions: filed as activator, time 3-9 hrs
[17] = molecular target: T1, Nuclear factor erythroid 2-related factor 2 (Mus musculus); assay: Activation of NRF2 in mouse BV-2 cells assessed as increase in NQO1 protein expression at 7 uM incubated for 3 to 9 hrs by Western blotting analysis; type: cell-based; conditions: filed as activator, time 3-9 hrs
[18] = molecular target: T1, Nuclear factor erythroid 2-related factor 2 (Mus musculus); assay: Activation of NRF2 in mouse BV-2 cells assessed as increase in GPX4 protein expression at 7 uM incubated for 3 to 9 hrs by Western blotting analysis; type: cell-based; conditions: filed as activator, time 3-9 hrs
BV-2 [19] = assay: Cytoprotective activity against H2O2-induced toxicity in mouse BV-2 cells assessed as increase in cell viability incubated for 6 hrs by CCK-8 assay; type: functional, cell-based
BV-2 [20] = assay: Cytoprotective activity against H2O2-induced toxicity in mouse BV-2 cells assessed as decrease in ROS production incubated for 6 hrs by DCFH-DA staining based inverted fluorescence microscopic analysis; type: functional, cell-based
BV-2 [21] = assay: Anti-neuroinflammatory activity in mouse BV-2 cells assessed as reduction in LPS-induced NO production incubated for 6 hrs followed by LPS addition measured after 24 hrs by Griess reagent based assay; type: functional, cell-based; conditions: time 30.0 hrs
BV-2 [22] = assay: Anti-neuroinflammatory activity in mouse BV-2 cells assessed as reduction in LPS-induced iNOS expression at 1 to 7 uM incubated for 6 hrs followed by LPS addition measured after 24 hrs by Western blotting analysis; type: functional, cell-based; conditions: dose 1-7 µM, time 30.0 hrs
BV-2 [23] = assay: Anti-neuroinflammatory activity in mouse BV-2 cells assessed as reduction in LPS-induced COX-2 expression at 1 to 7 uM incubated for 6 hrs followed by LPS addition measured after 24 hrs by Western blotting analysis; type: functional, cell-based; conditions: dose 1-7 µM, time 30.0 hrs
BV-2 [24] = assay: Anti-neuroinflammatory activity in mouse BV-2 cells assessed as reduction in LPS-induced TNF-alpha production incubated for 6 hrs followed by LPS addition measured after 24 hrs by ELISA; type: functional, cell-based; conditions: time 30.0 hrs
BV-2 [25] = assay: Anti-neuroinflammatory activity in mouse BV-2 cells assessed as reduction in LPS-induced IL-6 production incubated for 6 hrs followed by LPS addition measured after 24 hrs by ELISA; type: functional, cell-based; conditions: time 30.0 hrs
[26] = Stability of the compound in serum (unknown origin) assessed as drug degradation incubated for 8 hrs by HPLC analysis; type: ADME, cell-free
[27] = Drug degradation in serum (unknown origin) incubated for 12 hrs by HPLC analysis; type: ADME, cell-free; conditions: read-out: Drug degradation
[28] = Acute toxicity in Kunming mouse assessed as behavioral abnormalities at 625 to 2500 mg/kg,po administration for 4 hrs; type: organism-based; conditions: in vivo, dose 625-2500 mg/kg
[29] = Acute toxicity in Kunming mouse assessed as change in body weight at 625 to 2500 mg/kg,po administration for 14 days; type: organism-based; conditions: in vivo, 336 h, dose 625-2500 mg/kg, time 14 day
[30] = Acute toxicity in Kunming mouse assessed as heart pathological change at 625 to 2500 mg/kg,po administration for 14 days by Hematoxylin and eosin based staining analysis; type: organism-based; conditions: in vivo, 336 h, dose 625-2500 mg/kg, time 14 day
[31] = Acute toxicity in Kunming mouse assessed as liver pathological change at 625 to 2500 mg/kg,po administration for 14 days by Hematoxylin and eosin based staining analysis; type: organism-based; conditions: in vivo, 336 h, dose 625-2500 mg/kg, time 14 day
[32] = Acute toxicity in Kunming mouse assessed as lung pathological change at 625 to 2500 mg/kg,po administration for 14 days by Hematoxylin and eosin based staining analysis; type: organism-based; conditions: in vivo, 336 h, dose 625-2500 mg/kg, time 14 day
[33] = Acute toxicity in Kunming mouse assessed as kidney pathological change at 625 to 2500 mg/kg,po administration for 14 days by Hematoxylin and eosin based staining analysis; type: organism-based; conditions: in vivo, 336 h, dose 625-2500 mg/kg, time 14 day
[34] = Acute toxicity in Kunming mouse assessed as brain pathological change at 625 to 2500 mg/kg,po administration for 14 days by Hematoxylin and eosin based staining analysis; type: organism-based; conditions: in vivo, 336 h, dose 625-2500 mg/kg, time 14 day
Mus musculus [35] = assay: Antialzheimer activity in scopolamine-induced cognitive impairment Kunming mouse model assessed as increase in latency at po administration by step-down assay; type: functional, organism-based
Mus musculus [36] = assay: Antialzheimer activity in scopolamine-induced cognitive impairment Kunming mouse model assessed as decrease in number of latency error at po administration by step-down assay; type: functional, organism-based
Mus musculus [37] = assay: Antialzheimer activity in scopolamine-induced cognitive impairment Kunming mouse model assessed as increase in latency at 15 mg/kg,po administration by step-down assay; type: functional, organism-based
Mus musculus [38] = assay: Antialzheimer activity in scopolamine-induced cognitive impairment Kunming mouse model assessed as increase in latency at 7.5 mg/kg,po administration by step-down assay; type: functional, organism-based

## COC(=O)/C=C/C(=O)Nc1cccc(OCCCCSC(=S)N(C)C)c1
Acetylcholinesterase [1]
  IC50: 56.5 µM
[2]
  inhibition: 7.25%

## COC(=O)/C=C/C(=O)Nc1cccc(OCCCSC(=S)N2CCCCC2)c1
Acetylcholinesterase [1]
  IC50: 2.38 µM
[2]
  inhibition: 13.2%
Acetylcholinesterase [3]
  IC50: 1980 nM
[4]
  inhibition: 7.06%
In vitro
  Papp at 18 h: 13 ×10⁻⁶ cm/s

## COC(=O)/C=C/C(=O)Nc1cccc(OCCCCSC(=S)N2CCC(O)CC2)c1
Acetylcholinesterase [1]
  IC50: 76.5 µM
[2]
  inhibition: 10.1%

## COC(=O)/C=C/C(=O)Nc1cccc(OCCCCCCSC(=S)N2CCCCC2)c1
Acetylcholinesterase [1]
  IC50: 28.7 µM
[2]
  inhibition: < 5%

## COC(=O)/C=C/C(=O)Nc1cccc(OCCCCSC(=S)N2CCCCC2C)c1 (stereo not drawn)
Acetylcholinesterase [1]
  IC50: 0.088 µM
[2]
  inhibition: 7.5%
Acetylcholinesterase [3]
  IC50: 53 nM
[4]
  inhibition: < 5%
BV-2 [5]
  Activity: Non-Toxic
BV-2 [6]
  Activity: Tde
BV-2 [7]
  Activity: Active
BV-2 [8]
  Activity: inactive
BV-2 [9]
  Activity: Dose-Dependent Effect
[10]
  Activity: Dose-Dependent Effect
[11]
  Activity: Dose-Dependent Effect
[12]
  Activity: Dose-Dependent Effect
[13]
  Activity: Tde
[14]
  Activity: Tde
[15]
  Activity: Tde
[16]
  Activity: Active
[17]
  Activity: Active
[18]
  Activity: Active
BV-2 [19]
  Activity: Dose-Dependent Effect
BV-2 [20]
  Activity: Dose-Dependent Effect
BV-2 [21]
  Activity: Dose-Dependent Effect
BV-2 [22]
  Activity: Active
BV-2 [23]
  Activity: Active
BV-2 [24]
  Activity: Dose-Dependent Effect
BV-2 [25]
  Activity: Dose-Dependent Effect
[26]
  Stability: Unstable
[27]
  metabolised at 12 h: 50%
[28]
  Activity: Non-Toxic
[29]
  Activity: Non-Toxic
[30]
  Activity: Non-Toxic
[31]
  Activity: Non-Toxic
[32]
  Activity: Non-Toxic
[33]
  Activity: Non-Toxic
[34]
  Activity: Non-Toxic
Mus musculus [35]
  Activity: Dose-Dependent Effect
Mus musculus [36]
  Activity: Dose-Dependent Effect
Mus musculus [37]
  Activity: Active
Mus musculus [38]
  Activity: inactive
In vitro
  Papp at 18 h: 17.9 ×10⁻⁶ cm/s

## COC(=O)/C=C/C(=O)Nc1cccc(OCCCCCSC(=S)N2CCCCC2)c1
Acetylcholinesterase [1]
  IC50: 26.7 µM
[2]
  inhibition: < 5%

## CCN(CC)C(=S)SCCCCOc1cccc(NC(=O)/C=C/C(=O)OC)c1
Acetylcholinesterase [1]
  IC50: 11.3 µM
[2]
  inhibition: > 5%

## COC(=O)/C=C/C(=O)Nc1cccc(OCCCCSC(=S)N2CCC(C)CC2)c1
Acetylcholinesterase [1]
  IC50: 19.7 µM
[2]
  inhibition: 8.48%

## COC(=O)/C=C/C(=O)Nc1cccc(OCCCCSC(=S)N2CCOCC2)c1
Acetylcholinesterase [1]
  IC50: 74.2 µM
[2]
  inhibition: 6.88%
